19 molecules from patent publication US10793542B2, “Hetroarylamine compounds for modulating the hedgehog pathway and preparing method and uses thereof” (DEVELOPMENT CENTER FOR BIOTECHNOLOGY, priority 2016, dated 2020) can be followed below.

What all share (assay type): cell-based
For experiment [1], the system named is hedgehog pathway (pGL3-7xGli-Luciferase reporter in C3H10T1/2 cells). The experiment can be described thus: Transient transfection of C3H10T1/2 and Gli-Luc reporter assay with SAG stimulation. The following applies: Mus musculus, C3H 10T1/2, SAG 20 nM, 48 hr, read-out: Inhibition of Gli-Luc expression [IC50. On the procedure: A cell-based screen for inhibitors of the hedgehog pathway was performed using a transient transfection system in C3H10T1/2 cells with pGL3-7xGli-Luciferase reporter plasmids C3H10T1/2 cells (ATCC, cat.#CCL-226) were seeded into 6-well plates at 8×10^4 cells/well in a BME medium containing 10% heat-inactivated FBS. Cells were transfected the next morning with 500 ng/well pGL3-7xGli-Luciferase reporter plasmids and 100 ng/well pRL-TK Renilla luciferase reporter plasmids (Promega)using GeneJuice transfection reagent (Novagene). After 24 h, transfected cells were collected by trypsin treatment and re-plated in 96-well plates in an RPMI medium containing 0.5% FBS with a density of 1.5×10^4 cells/well. Compounds were dissolved in DMSO with serial dilutions and were then added to the assay plate. SAG (Hh-Ag 1.3) (Santa Cruz) was added to the assay plated for a final concentration 20 nM. The assay plates were incubated at 37° C. for 48 hr.
(§1) Firefly luciferase and Renilla luciferase activity was determined using the Dual-Glo Luciferase reporter assay system (Promega) with a Victor3 plate reader (PerkinElmer Life Sciences). Firefly luciferase readings were normalized to Renilla luciferase to correct for transfection efficiency. Luminance reading for the C3H10T1/2-Gli-Luc assay was normalized based on DMSO control with SAG stimulation (100% pathway activity) and without SAG stimulation (0% pathway activity). IC50 values, defined as the inflection point of the logistic curve, were determined by nonlinear regression using the Prism 5 software (GraphPad).
Background: In a reporter assay the amount or activity of a reporter protein is the signal.

The target in another experiment is T1, Smo wild type (Homo sapiens, UniProt Q99835).
T1 construct: expressed in transfected cells; host or cells: C3H10T1/2 cells (ATCC CCL-226), transient transfection with pLPCX-SMO
T1 sequence (Q99835 28-787): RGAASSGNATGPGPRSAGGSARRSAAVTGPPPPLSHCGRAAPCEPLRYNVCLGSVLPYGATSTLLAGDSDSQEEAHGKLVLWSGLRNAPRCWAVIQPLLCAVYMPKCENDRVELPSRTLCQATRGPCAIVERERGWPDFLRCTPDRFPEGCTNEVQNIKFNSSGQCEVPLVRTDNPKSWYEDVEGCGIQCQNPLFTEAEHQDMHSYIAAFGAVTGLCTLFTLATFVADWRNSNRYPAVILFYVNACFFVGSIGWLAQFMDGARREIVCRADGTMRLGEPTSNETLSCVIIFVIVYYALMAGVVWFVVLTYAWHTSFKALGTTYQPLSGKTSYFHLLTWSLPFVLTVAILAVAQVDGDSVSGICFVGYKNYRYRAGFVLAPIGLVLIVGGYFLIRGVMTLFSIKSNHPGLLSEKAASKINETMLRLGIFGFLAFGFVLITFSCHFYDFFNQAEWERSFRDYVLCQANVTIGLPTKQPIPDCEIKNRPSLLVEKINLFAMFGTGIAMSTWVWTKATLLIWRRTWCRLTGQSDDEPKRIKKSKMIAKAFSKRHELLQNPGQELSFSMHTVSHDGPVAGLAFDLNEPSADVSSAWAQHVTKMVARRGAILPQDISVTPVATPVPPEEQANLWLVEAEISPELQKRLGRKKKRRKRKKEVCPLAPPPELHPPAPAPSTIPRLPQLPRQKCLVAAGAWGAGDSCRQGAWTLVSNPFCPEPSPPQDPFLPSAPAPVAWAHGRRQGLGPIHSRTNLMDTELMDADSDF
The experiment can be described thus: Reporter assay of C3H10T1/2-Gli-Luc cells transfected with wild-type Smo, without SAG. Particulars: C3H10T1/2 cells transfected with pLPCX-SMO, no SAG, 48 hr; read-out: Inhibition of C3H10T1/2-Gli-Luc-Smo-WT [IC50. On the procedure: (§2) A transient transfection system with a Smo wild type or a Smo D473H mutant was also used for compound screening. For the SMO inhibition experiments, cells were transfected with an additional 500 ng/well of wild-type or D473H-mutant type SMO construct (pLPCX-SMO or pLPCX-SMO-D473H). After 24 h, transfected cells were collected by trypsin treatment and re-plated in 96-well plates in an RPMI medium containing 0.5% FBS with a density of 1.5×10^4 cells/well. Compounds were dissolved in DMSO with serial dilutions and were then added to the assay plate. The assay plates were incubated at 37° C. for 48 hr.
as §1
(§3) The reporter assay of C3H10T1/2-Gli-Luc cells transfected with a wild-type, D473H mutant Smo mutant was carried out with the same protocol but without SAG stimulation. Luminance reading for the SMO inhibition experiments assay was normalized based on DMSO control (100% of the pathway activity) and a known Smo antagonist (ALLO-2 at 10 μM, 0% of the pathway activity).

The next experiment has as its target T2, Smo D473H mutant (Homo sapiens, UniProt Q99835, D473H).
T2 construct: expressed in transfected cells; host or cells: C3H10T1/2 cells (ATCC CCL-226), transient transfection with pLPCX-SMO-D473H
Put plainly: Reporter assay of C3H10T1/2-Gli-Luc cells transfected with Smo D473H mutant, without SAG. The following applies: C3H10T1/2 cells transfected with pLPCX-SMO-D473H, no SAG, 48 hr; read-out: Inhibition of C3H10T1/2-Gli-Luc-Smo-D473H [IC50. On the procedure:
as §2, §1, §3

Where only a bound is given, the exact number is not on record here.

T2 sequence (Q99835 28-787 D473H): as the sequence (Q99835 28-787) above, with D446H counted along it

`CCN(CC)Cc1ccc(C)c(NC(=O)c2ccc(Nc3ncc(SC)c(-c4ccc(F)cc4)n3)cc2)c1` [Compound 47, N-(5-Diethylaminomethyl-2-methyl-phenyl)-4-[4-(4-fluoro-phenyl)-5-methylsulfanyl-pyrimidin-2-ylamino]-benzamide]: the IC50 in experiment [1] was below 100 nM; at Smo wild type it was below 100 nM; at Smo D473H mutant, 100 to 1000 nM.
On to `CCN(CC)Cc1ccc(C)c(NC(=O)c2ccc(Nc3ncc(SC)c(-c4ccc(OC(F)(F)F)cc4)n3)nc2)c1` [Compound 66, N-(5-Diethylaminomethyl-2-methyl-phenyl)-6-[5-methylsulfanyl-4-(4-trifluoromethoxy-phenyl)-pyrimidin-2-ylamino]-nicotinamide], for which the IC50 in experiment [1] was below 100 nM; at Smo wild type, below 100 nM; at Smo D473H mutant, 100 to 1000 nM.
Turning to `Cc1ccc(CN2CCOCC2)cc1NC(=O)c1ccc(Nc2ncc(N)c(-c3ccc(OC(F)(F)F)cc3)n2)cc1` [Compound 88, 4-((5-amino-4-(4-(trifluoromethoxy)phenyl)pyrimidin-2-yl)amino)-N-(2-methyl-5-(morpholinomethyl)phenyl)benzamide], the IC50 (in experiment [1]; at Smo wild type; on Smo D473H mutant) was below 100 nM each time.
For `CSc1cnc(Nc2ccc(C(=O)Nc3cc(CN4CCOCC4)ccc3C)cc2)nc1-c1ccc(F)nc1` [Compound 67, 4-[4-(6-Fluoro-pyridin-3-yl)-5-methylsulfanyl-pyrimidin-2-ylamino]-N-(2-methyl-5-morpholin-4-ylmethyl-phenyl)-benzamide], the IC50 is below 100 nM in experiment [1], below 100 nM at Smo wild type and 100 to 1000 nM at Smo D473H mutant.
Regarding `CNc1cnc(Nc2ccc(C(=O)Nc3cc(CN4CCOCC4)ccc3C)cc2)nc1-c1ccc(OC(F)(F)F)cc1` [Compound 91, N-(2-methyl-5-(morpholinomethyl)phenyl)-4-((5-(methylamino)-4-(4-(trifluoromethoxy)phenyl)pyrimidin-2-yl)amino)benzamide], the IC50 (in experiment [1]; on Smo wild type; on Smo D473H mutant) was below 100 nM in each case.
For the molecule `CCOc1cnc(Nc2ccc(C(=O)Nc3cc(CN4CCN(C)CC4)ccc3C)cc2)nc1-c1ccc(OC(F)(F)F)cc1` [Compound 73, 4-[5-Ethoxy-4-(4-trifluoromethoxy-phenyl)-pyrimidin-2-ylamino]-N-[2-methyl-5-(4-methyl-piperazin-1-ylmethyl)-phenyl]-benzamide], the IC50 in experiment [1] is below 100 nM; on Smo wild type, below 100 nM; on Smo D473H mutant, 100 to 1000 nM.
Consider `CCN(CC)Cc1ccc(C)c(NC(=O)c2ccc(Nc3ncc(SC)c(-c4ccc(F)cc4)n3)c(F)c2)c1` [Compound 53, N-(5-Diethylaminomethyl-2-methyl-phenyl)-3-fluoro-4-[4-(4-fluoro-phenyl)-5-methylsulfanyl-pyrimidin-2-ylamino]-benzamide], for which the IC50 (in experiment [1]; on Smo wild type; at Smo D473H mutant) was below 100 nM in each case.
Turning to `CSc1cnc(Nc2ccc(C(=O)Nc3cc(CN(C)C)ccc3C)cc2)nc1-c1ccc(F)cc1` [Compound 31, N-(5-Dimethylaminomethyl-2-methyl-phenyl)-4-[4-(4-fluoro-phenyl)-5-methylsulfanyl-pyrimidin-2-ylamino]-benzamide], the IC50 in experiment [1] was below 100 nM; at Smo wild type it was below 100 nM; on Smo D473H mutant, 100 to 1000 nM.
As for `CCOc1cnc(Nc2ccc(C(=O)Nc3cc(CN4CCN(C)CC4)ccc3C)cc2)nc1-c1ccc(F)cc1` [Compound 76, 4-[5-Ethoxy-4-(4-fluoro-phenyl)-pyrimidin-2-ylamino]-N-[2-methyl-5-(4-methyl-piperazin-1-ylmethyl)-phenyl]-benzamide], the IC50 (in experiment [1]; at Smo wild type; on Smo D473H mutant) was below 100 nM in each case.
As to `COc1cnc(Nc2ccc(C(=O)Nc3cc(CN4CCOCC4)ccc3C)cc2F)nc1-c1ccc(F)cc1` [Compound 60, 3-Fluoro-4-[4-(4-fluoro-phenyl)-5-methoxy-pyrimidin-2-ylamino]-N-(2-methyl-5-morpholin-4-ylmethyl-phenyl)-benzamide], the IC50 (in experiment [1]; on Smo wild type; on Smo D473H mutant) was below 100 nM each time.
On to `CCOc1cnc(Nc2ccc(C(=O)Nc3cc(CN(CC)CC)ccc3C)cc2)nc1-c1ccc(OC(F)(F)F)cc1` [Compound 74, N-(5-Diethylaminomethyl-2-methyl-phenyl)-4-[5-ethoxy-4-(4-trifluoromethoxy-phenyl)-pyrimidin-2-ylamino]-benzamide], for which the IC50 in experiment [1] is below 100 nM; at Smo wild type, below 100 nM; at Smo D473H mutant, 100 to 1000 nM.
Take `COc1cnc(Nc2ccc(C(=O)Nc3cc(CN4CCOCC4)ccc3C)cc2)nc1-c1ccc(OC(F)(F)F)cc1` [Compound 38, 4-[5-Methoxy-4-(4-trifluoromethoxy-phenyl)-pyrimidin-2-ylamino]-N-(2-methyl-5-morpholin-4-ylmethyl-phenyl)-benzamide]: the IC50 (in experiment [1]; at Smo wild type; at Smo D473H mutant) was below 100 nM in each case.
Regarding `CCN(CC)Cc1cccc(NC(=O)c2ccc(Nc3ncc(SC)c(-c4ccc(OC(F)(F)F)cc4)n3)c(F)c2)c1` [Compound 56, N-(3-Diethylaminomethyl-phenyl)-3-fluoro-4-[5-methylsulfanyl-4-(4-trifluoromethoxy-phenyl)-pyrimidin-2-ylamino]-benzamide], the IC50 in experiment [1] was below 100 nM; at Smo wild type, below 100 nM; on Smo D473H mutant it was 100 to 1000 nM.
On to `CCOc1cnc(Nc2ccc(C(=O)Nc3cc(CN4CCOCC4)ccc3C)cc2)nc1-c1ccc(F)cc1` [Compound 75, 4-[5-Ethoxy-4-(4-fluoro-phenyl)-pyrimidin-2-ylamino]-N-(2-methyl-5-morpholin-4-ylmethyl-phenyl)-benzamide], for which the values for the IC50 (in experiment [1]; at Smo wild type; at Smo D473H mutant) were below 100 nM, below 100 nM and 100 to 1000 nM, respectively.
As to `COc1cnc(Nc2ccc(C(=O)Nc3cc(CN4CCN(C)CC4)ccc3C)cc2)nc1-c1ccc(C#N)cc1` [Compound 51, 4-[4-(4-Cyano-phenyl)-5-methoxy-pyrimidin-2-ylamino]-N-[2-methyl-5-(4-methyl-piperazin-1-ylmethyl)-phenyl]-benzamide], the IC50 in experiment [1] is below 100 nM; at Smo wild type it was below 100 nM; at Smo D473H mutant it was 100 to 1000 nM.
As for `COc1cccc(OC)c1NC(=O)c1ccc(Nc2ncc(SC)c(-c3cccnc3F)n2)cc1` [Compound 9, N-(2,6-Dimethoxy-phenyl)-4-[4-(2-fluoro-pyridin-3-yl)-5-methylsulfanyl-pyrimidin-2-ylamino]-benzamide], the IC50 was below 100 nM in experiment [1], below 100 nM at Smo wild type and 100 to 1000 nM on Smo D473H mutant.
Consider `CSc1cnc(Nc2ccc(C(=O)Nc3cc(CN4CCOCC4)ccc3C)cc2F)nc1-c1cnn(C)c1` [Compound 45, 3-Fluoro-N-(2-methyl-5-morpholin-4-ylmethyl-phenyl)-4-[4-(1-methyl-1H-pyrazol-4-yl)-5-methylsulfanyl-pyrimidin-2-ylamino]-benzamide], for which the IC50 (in experiment [1]; at Smo wild type; on Smo D473H mutant) was below 100 nM throughout.
For `CSc1cnc(Nc2ccc(C(=O)Nc3cccc(CN4CCOCC4)c3)cn2)nc1-c1ccc(OC(F)(F)F)cc1` [Compound 64, 6-[5-Methylsulfanyl-4-(4-trifluoromethoxy-phenyl)-pyrimidin-2-ylamino]-N-(3-morpholin-4-ylmethyl-phenyl)-nicotinamide], the IC50 (in experiment [1]; at Smo wild type; at Smo D473H mutant) was below 100 nM throughout.
With `CCN(CC)Cc1ccc(C)c(NC(=O)c2ccc(Nc3ncc(OC)c(-c4ccc(C#N)cc4)n3)cc2)c1` [Compound 50, 4-[4-(4-Cyano-phenyl)-5-methoxy-pyrimidin-2-ylamino]-N-(5-diethylaminomethyl-2-methyl-phenyl)-benzamide], the IC50 was below 100 nM in experiment [1], below 100 nM on Smo wild type and 100 to 1000 nM on Smo D473H mutant.
